Key:
Assay in all cases: relative viability (nuclei count vs DMSO), 5 days (fraction); higher = more cells survive
SW 1573 = tested on: SW 1573
Method in brief: (§1)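 Relative viability is defined as nuclei in treated wells over nuclei in vehicle wells. Duplicate plates were run and medians reported. Lung cancer cell lines in 1536-well plates were dosed by pin tool one day after seeding, with one drug or with a fixed anchor-drug dose plus five library-drug doses (not always all listed) in √10 steps, and nuclei were counted after 5 days.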

NCI-H2342 = tested on: NCI-H2342
Method in brief: as §1

NCI-H647 = tested on: NCI-H647
Method in brief: as §1

NCI-H522 = tested on: NCI-H522
Method in brief: as §1

HCC-78 = tested on: HCC-78
Method in brief: as §1

HOP-62 = tested on: HOP-62
Method in brief: as §1

NCI-H358 = tested on: NCI-H358
Method in brief: as §1

NCI-H2347 = tested on: NCI-H2347
Method in brief: as §1

NCI-H2126 = tested on: NCI-H2126
Method in brief: as §1

HCC-15 = tested on: HCC-15
Method in brief: as §1

PC-3 [JPC-3] = tested on: PC-3 [JPC-3]
Method in brief: as §1

NCI-H1915 = tested on: NCI-H1915
Method in brief: as §1

LC-2-ad = tested on: LC-2-ad
Method in brief: as §1

RERF-LC-KJ = tested on: RERF-LC-KJ
Method in brief: as §1

A-427 = tested on: A-427
Method in brief: as §1

LXF-289 = tested on: LXF-289
Method in brief: as §1

NCI-H1755 = tested on: NCI-H1755
Method in brief: as §1

NCI-H1734 = tested on: NCI-H1734
Method in brief: as §1

NCI-H1975 = tested on: NCI-H1975
Method in brief: as §1

NCI-H2228 = tested on: NCI-H2228
Method in brief: as §1

SK-LU-1 = tested on: SK-LU-1
Method in brief: as §1

## COc1cc2nccc(Oc3ccc(NC(=O)Nc4cc(C)on4)c(Cl)c3)c2cc1OC [Tivozanib] + Cc1cc(Nc2cc(N3CCN(C)CC3)nc(Sc3ccc(NC(=O)C4CC4)cc3)n2)n[nH]1 [Tozasertib] (partner 0.1 µM)
SW 1573; first compound 0.005 µM
  relative viability: 0.165
SW 1573; first compound 0.01581 µM
  relative viability: 0.17
SW 1573; first compound 0.05 µM
  relative viability: 0.198
SW 1573; first compound 0.1581 µM
  relative viability: 0.205
SW 1573; first compound 0.5 µM
  relative viability: 0.38
NCI-H2342; first compound 0.005 µM
  relative viability: 0.469
NCI-H2342; first compound 0.01581 µM
  relative viability: 0.543
NCI-H2342; first compound 0.05 µM
  relative viability: 0.603
NCI-H2342; first compound 0.5 µM
  relative viability: 0.43
NCI-H647; first compound 0.005 µM
  relative viability: 0.269
NCI-H647; first compound 0.01581 µM
  relative viability: 0.203
NCI-H647; first compound 0.05 µM
  relative viability: 0.263
NCI-H647; first compound 0.1581 µM
  relative viability: 0.332
NCI-H647; first compound 0.5 µM
  relative viability: 0.302
NCI-H522; first compound 0.005 µM
  relative viability: 0.581
NCI-H522; first compound 0.01581 µM
  relative viability: 0.553
NCI-H522; first compound 0.05 µM
  relative viability: 0.581
NCI-H522; first compound 0.1581 µM
  relative viability: 0.536
NCI-H522; first compound 0.5 µM
  relative viability: 0.577
HCC-78; first compound 0.005 µM
  relative viability: 0.324
HCC-78; first compound 0.01581 µM
  relative viability: 0.472
HCC-78; first compound 0.05 µM
  relative viability: 0.347
HCC-78; first compound 0.1581 µM
  relative viability: 0.501
HCC-78; first compound 0.5 µM
  relative viability: 0.328
HOP-62; first compound 0.005 µM
  relative viability: 0.349
HOP-62; first compound 0.01581 µM
  relative viability: 0.384
HOP-62; first compound 0.05 µM
  relative viability: 0.422
HOP-62; first compound 0.1581 µM
  relative viability: 0.391
HOP-62; first compound 0.5 µM
  relative viability: 0.362
NCI-H358; first compound 0.005 µM
  relative viability: 0.0936
NCI-H358; first compound 0.01581 µM
  relative viability: 0.101
NCI-H358; first compound 0.05 µM
  relative viability: 0.102
NCI-H358; first compound 0.1581 µM
  relative viability: 0.102
NCI-H358; first compound 0.5 µM
  relative viability: 0.108
NCI-H2347; first compound 0.01581 µM
  relative viability: 0.54
NCI-H2347; first compound 0.05 µM
  relative viability: 0.594
NCI-H2347; first compound 0.5 µM
  relative viability: 0.511
NCI-H2126; first compound 0.005 µM
  relative viability: 0.804
NCI-H2126; first compound 0.01581 µM
  relative viability: 0.846
NCI-H2126; first compound 0.05 µM
  relative viability: 0.915
NCI-H2126; first compound 0.1581 µM
  relative viability: 0.667
NCI-H2126; first compound 0.5 µM
  relative viability: 0.857
HCC-15; first compound 0.005 µM
  relative viability: 0.411
HCC-15; first compound 0.01581 µM
  relative viability: 0.419
HCC-15; first compound 0.05 µM
  relative viability: 0.496
HCC-15; first compound 0.1581 µM
  relative viability: 0.415
HCC-15; first compound 0.5 µM
  relative viability: 0.354
PC-3 [JPC-3]; first compound 0.005 µM
  relative viability: 0.802
PC-3 [JPC-3]; first compound 0.01581 µM
  relative viability: 0.869
PC-3 [JPC-3]; first compound 0.05 µM
  relative viability: 0.94
PC-3 [JPC-3]; first compound 0.1581 µM
  relative viability: 0.77
PC-3 [JPC-3]; first compound 0.5 µM
  relative viability: 0.837
NCI-H1915; first compound 0.005 µM
  relative viability: 0.4
NCI-H1915; first compound 0.01581 µM
  relative viability: 0.439
NCI-H1915; first compound 0.05 µM
  relative viability: 0.413
NCI-H1915; first compound 0.1581 µM
  relative viability: 0.511
NCI-H1915; first compound 0.5 µM
  relative viability: 0.5
LC-2-ad; first compound 0.005 µM
  relative viability: 0.408
LC-2-ad; first compound 0.01581 µM
  relative viability: 0.486
LC-2-ad; first compound 0.05 µM
  relative viability: 0.484
LC-2-ad; first compound 0.1581 µM
  relative viability: 0.399
LC-2-ad; first compound 0.5 µM
  relative viability: 0.408
RERF-LC-KJ; first compound 0.005 µM
  relative viability: 0.477
RERF-LC-KJ; first compound 0.01581 µM
  relative viability: 0.482
RERF-LC-KJ; first compound 0.05 µM
  relative viability: 0.533
RERF-LC-KJ; first compound 0.1581 µM
  relative viability: 0.534
RERF-LC-KJ; first compound 0.5 µM
  relative viability: 0.496
A-427; first compound 0.005 µM
  relative viability: 0.179
A-427; first compound 0.01581 µM
  relative viability: 0.23
A-427; first compound 0.05 µM
  relative viability: 0.251
A-427; first compound 0.1581 µM
  relative viability: 0.281
A-427; first compound 0.5 µM
  relative viability: 0.207
LXF-289; first compound 0.005 µM
  relative viability: 0.173
LXF-289; first compound 0.01581 µM
  relative viability: 0.201
LXF-289; first compound 0.05 µM
  relative viability: 0.228
LXF-289; first compound 0.1581 µM
  relative viability: 0.272
LXF-289; first compound 0.5 µM
  relative viability: 0.23
NCI-H1755; first compound 0.005 µM
  relative viability: 0.565
NCI-H1755; first compound 0.01581 µM
  relative viability: 0.581
NCI-H1755; first compound 0.05 µM
  relative viability: 0.588
NCI-H1755; first compound 0.1581 µM
  relative viability: 0.666
NCI-H1755; first compound 0.5 µM
  relative viability: 0.531
NCI-H1734; first compound 0.005 µM
  relative viability: 0.24
NCI-H1734; first compound 0.01581 µM
  relative viability: 0.258
NCI-H1734; first compound 0.05 µM
  relative viability: 0.26
NCI-H1734; first compound 0.1581 µM
  relative viability: 0.275
NCI-H1734; first compound 0.5 µM
  relative viability: 0.252
NCI-H1975; first compound 0.005 µM
  relative viability: 0.676
NCI-H1975; first compound 0.01581 µM
  relative viability: 0.739
NCI-H1975; first compound 0.05 µM
  relative viability: 0.789
NCI-H1975; first compound 0.1581 µM
  relative viability: 0.691
NCI-H1975; first compound 0.5 µM
  relative viability: 0.567
NCI-H2228; first compound 0.005 µM
  relative viability: 0.232
NCI-H2228; first compound 0.01581 µM
  relative viability: 0.235
NCI-H2228; first compound 0.05 µM
  relative viability: 0.25
NCI-H2228; first compound 0.1581 µM
  relative viability: 0.26
NCI-H2228; first compound 0.5 µM
  relative viability: 0.274
SK-LU-1; first compound 0.005 µM
  relative viability: 0.332
SK-LU-1; first compound 0.01581 µM
  relative viability: 0.366
SK-LU-1; first compound 0.05 µM
  relative viability: 0.472
SK-LU-1; first compound 0.1581 µM
  relative viability: 0.357
SK-LU-1; first compound 0.5 µM
  relative viability: 0.335
